Converted amounts (≈) assume the structure as drawn.

The test deals with Escherichia coli ATCC 25922. Kind of test: Minimal Inhibitory Concentration (MIC) determination, broth microdilution (CLSI M07-A10). It is filed as cell-based. The following applies: Escherichia coli, ATCC25922, strain Escherichia coli ATCC 25922, 18-24 hours at 35±2° C., lowest concentration for complete growth inhibition (no visible growth), read-out: Escherichia coli growth inhibition MIC. A digest of the protocol:
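Broth microdilution per CLSI M07-A10; compounds in 2-fold serial dilutions; inoculum from 0.5 McFarland suspension diluted 1:200 in broth. Incubated 18-24 h at 35±2° C in ambient air; MIC (μg/mL) taken as lowest concentration giving no visible growth.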
With `CNCCc1nc2c(F)c3c(c(F)c2[nH]1)CC(CN1CCC2(CC1)CN(c1cnc4c(n1)NC(=O)CO4)C(=O)O2)C3.O=C(O)C(F)(F)F` [Example 13, 6-[8-[[4,8-difluoro-2-[2-(methylamino)ethyl]-3,5,6,7-tetrahydrocyclopenta[f]benzimidazol-6-yl]methyl]-2-oxo-1-oxa-3,8-diazaspiro[4.5]decan-3-yl]-4H-pyrazino[2,3-b][1,4]oxazin-3-one; 2,2,2-trifluoroacetic acid], the minimum inhibitory concentration (MIC) was determined as 0.25 µg/mL.

In the case of `O=C(O)C(F)(F)F.O=C1COc2ccc(N3CC4(CCN(CC5Cc6c(c(F)c7[nH]c([C@H]8CCNC8)nc7c6F)C5)CC4)OC3=O)nc2N1` [Example 15, 6-[8-[[4,8-difluoro-2-[(3S)-pyrrolidin-3-yl]-3,5,6,7-tetrahydrocyclopenta[f]benzimidazol-6-yl]methyl]-2-oxo-1-oxa-3,8-diazaspiro[4.5]decan-3-yl]-4H-pyrido[3,2-b][1,4]oxazin-3-one; 2,2,2-trifluoroacetic acid], the MIC turned out to be 0.25 µg/mL.

`O=C(O)C(F)(F)F.O=C1COc2ncc(N3CC4(CCN(CC5Cc6c(c(F)c7[nH]c(C8CNCCO8)nc7c6F)C5)CC4)OC3=O)nc2N1` (centres unmarked) [Example 16, 6-[8-[(4,8-difluoro-2-morpholin-2-yl-3,5,6,7-tetrahydrocyclopenta[f]benzimidazol-6-yl)methyl]-2-oxo-1-oxa-3,8-diazaspiro[4.5]decan-3-yl]-4H-pyrazino[2,3-b][1,4]oxazin-3-one; 2,2,2-trifluoroacetic acid]: the MIC worked out at 0.25 µg/mL.

Regarding `CN[C@H](C)c1nc2c(F)c3c(c(F)c2[nH]1)CC(CN1CCC2(CC1)CN(c1cnc4c(n1)NC(=O)CO4)C(=O)O2)C3.O=C(O)C(F)(F)F` [Example 17, 6-[8-[[4,8-difluoro-2-[(1R)-1-(methylamino)ethyl]-3,5,6,7-tetrahydrocyclopenta[f]benzimidazol-6-yl]methyl]-2-oxo-1-oxa-3,8-diazaspiro[4.5]decan-3-yl]-4H-pyrazino[2,3-b][1,4]oxazin-3-one; 2,2,2-trifluoroacetic acid], the MIC is 0.125 µg/mL.

As to `O=C(O)C(F)(F)F.O=C1COc2ncc(N3CC4(CCN(CC5Cc6c(c(F)c7[nH]c([C@@H]8COCCN8)nc7c6F)C5)CC4)OC3=O)nc2N1` [Example 18, 6-[8-[[4,8-difluoro-2-[(3R)-morpholin-3-yl]-3,5,6,7-tetrahydrocyclopenta[f]benzimidazol-6-yl]methyl]-2-oxo-1-oxa-3,8-diazaspiro[4.5]decan-3-yl]-4H-pyrazino[2,3-b][1,4]oxazin-3-one; 2,2,2-trifluoroacetic acid], the MIC turned out to be 0.5 µg/mL.

For the compound `CNCc1nc2c(F)c3c(c(F)c2[nH]1)CC(CNC1CC2(C1)CN(c1cnc4c(n1)NC(=O)CO4)C(=O)O2)C3` (centres unmarked) [Example 19, 6-[2-[[4,8-difluoro-2-(methylaminomethyl)-3,5,6,7-tetrahydrocyclopenta[f]benzimidazol-6-yl]methylamino]-6-oxo-5-oxa-7-azaspiro[3.4]octan-7-yl]-4H-pyrazino[2,3-b][1,4]oxazin-3-one], the MIC amounted to 0.5 µg/mL (≈ 0.925 µM).

As to `CNCCc1nc2c(F)c3c(c(F)c2n1C)CC(CN1CCC2(CC1)CN(c1cnc4c(n1)NC(=O)CO4)C(=O)O2)C3.O=C(O)C(F)(F)F` (centres unmarked) [Example 20, 6-[8-[[4,8-difluoro-1-methyl-2-[2-(methylamino)ethyl]-6,7-dihydro-5H-cyclopenta[f]benzimidazol-6-yl]methyl]-2-oxo-1-oxa-3,8-diazaspiro[4.5]decan-3-yl]-4H-pyrazino[2,3-b][1,4]oxain-3-one; 2,2,2-trifluoroacetic acid], the MIC came out at 0.25 µg/mL.

As to `O=C(O)C(F)(F)F.O=C1COc2ncc(N3CC4(CCN(CC5Cc6c(c(F)c7[nH]c([C@@H]8CCC(=O)N8)nc7c6F)C5)CC4)OC3=O)nc2N1` [Example 21, 6-[8-[[4,8-difluoro-2-[(2S)-5-oxopyrrolidin-2-yl]-3,5,6,7-tetrahydrocyclopenta[f]benzimidazol-6-yl]methyl]-2-oxo-1-oxa-3,8-diazaspiro[4.5]decan-3-yl]-4H-pyrazino[2,3-b][1,4]oxazin-3-one; 2,2,2-trifluoroacetic acid], the minimal inhibitory concentration (MIC) worked out at 1 µg/mL.

As to `CNCc1nc2cc3c(c(F)c2o1)CC(CN1CCC2(CC1)CN(c1cnc4c(n1)NC(=O)CO4)C(=O)O2)C3.O=C(O)C(F)(F)F` (centres unmarked) [Example 22, 6-[8-[[8-fluoro-2-(methylaminomethyl)-6,7-dihydro-5H-cyclopenta[f][1,3]benzoxazol-6-yl]methyl]-2-oxo-1-oxa-3,8-diazaspiro[4.5]decan-3-yl]-4H-pyrazino[2,3-b][1,4]oxazin-3-one; 2,2,2-trifluoroacetic acid], the minimum inhibitory concentration (MIC) turned out to be 0.25 µg/mL.

For `O=C1COc2ncc(N3CC4(CCN(CC5Cc6c(c(F)c7c(nc8n7CCNC8)c6F)C5)CC4)OC3=O)nc2N1` (centres unmarked) [Example 23, 6-[8-[(10,16-difluoro-2,5,8-triazatetracyclo[7.7.0.02,7.011,15]hexadeca-1(9),7,10,15-tetraen-13-yl)methyl]-2-oxo-1-oxa-3,8-diazaspiro[4.5]decan-3-yl]-4H-pyrazino[2,3-b][1,4]oxazin-3-one], the minimal inhibitory concentration (MIC) was 0.5 µg/mL (≈ 0.883 µM).

As to `O=C1COc2ncc(N3CC4(CCN(CC5Cc6c(c(F)c7[nH]c([C@H]8CCCN8)nc7c6F)C5)CC4)OC3=O)nc2N1` [Example 24, 6-[8-[[4,8-difluoro-2-[(2R)-pyrrolidin-2-yl]-3,5,6,7-tetrahydrocyclopenta[f]benzimidazol-6-yl]methyl]-2-oxo-1-oxa-3,8-diazaspiro[4.5]decan-3-yl]-4H-pyrazino[2,3-b][1,4]oxazin-3-one], the MIC amounted to 0.125 µg/mL (≈ 0.215 µM).

Consider `C[C@@H](N)c1nc2c(F)c3c(c(F)c2[nH]1)CC(CN1CCC2(CC1)CN(c1cnc4c(n1)NC(=O)CO4)C(=O)O2)C3.O=C(O)C(F)(F)F` [Example 25, 6-[8-[[2-[(1R)-1-aminoethyl]-4,8-difluoro-3,5,6,7-tetrahydrocyclopenta[f]benzimidazol-6-yl]methyl]-2-oxo-1-oxa-3,8-diazaspiro[4.5]decan-3-yl]-4H-pyrazino[2,3-b][1,4]oxazin-3-one; 2,2,2-trifluoroacetic acid], for which the MIC was at most 0.06 µg/mL.

For `CN[C@H](C)c1nc2c(F)c3c(c(F)c2[nH]1)CC(CNC1CC2(C1)CN(c1cnc4c(n1)NC(=O)CO4)C(=O)O2)C3` (stereo partly drawn) [Example 26, 6-[2-[[4,8-difluoro-2-[(1R)-1-(methylamino)ethyl]-3,5,6,7-tetrahydrocyclopenta[f]benzimidazol-6-yl]methylamino]-6-oxo-5-oxa-7-azaspiro[3.4]octan-7-yl]-4H-pyrazino[2,3-b][1,4]oxazin-3-one], the MIC was 0.5 µg/mL (≈ 0.902 µM).

For the compound `CN[C@H]1CN[C@H](c2nc3c(F)c4c(c(F)c3[nH]2)CC(CN2CCC3(CC2)CN(c2cnc5c(n2)NC(=O)CO5)C(=O)O3)C4)C1` [Example 27, 6-[8-[[4,8-difluoro-2-[(2S,4R)-4-(methylamino)pyrrolidin-2-yl]-3,5,6,7-tetrahydrocyclopenta[f]benzimidazol-6-yl]methyl]-2-oxo-1-oxa-3,8-diazaspiro[4.5]decan-3-yl]-4H-pyrazino[2,3-b][1,4]oxazin-3-one], the MIC came out at 0.25 µg/mL (≈ 0.41 µM).

For `O=C(O)C(F)(F)F.O=C1COc2ncc(N3CC4(CCN(CC5Cc6c(c(F)c7[nH]c([C@@H]8CC(O)CCN8)nc7c6F)C5)CC4)OC3=O)nc2N1` (stereo partly drawn) [Example 28, 6-[8-[[4,8-difluoro-2-[(2S)-4-hydroxy-2-piperidyl]-3,5,6,7-tetrahydrocyclopenta[f]benzimidazol-6-yl]methyl]-2-oxo-1-oxa-3,8diazaspiro[4.5]decan-3-yl]-4H-pyrazino[2,3-b][1,4]oxazin-3-one; 2,2,2-trifluoroacetic acid], the MIC stood at 0.25 µg/mL.

In the case of `CN(C)Cc1nc2c(F)c3c(c(F)c2[nH]1)CC(CNC1CC2(C1)CN(c1cnc4c(n1)NC(=O)CO4)C(=O)O2)C3` (centres unmarked) [Example 29, 6-[2-[[2-[(dimethylamino)methyl]-4,8-difluoro-3,5,6,7-tetrahydrocyclopenta[f]benzimidazol-6-yl]methylamino]-6-oxo-5-oxa-7-azaspiro[3.4]octan-7-yl]-4H-pyrazino[2,3-b][1,4]oxazin-3-one], the minimal inhibitory concentration (MIC) came out at 0.5 µg/mL (≈ 0.902 µM).

Regarding `CC(C)(N)c1nc2c(F)c3c(c(F)c2[nH]1)CC(CN1CCC2(CC1)CN(c1cnc4c(n1)NC(=O)CO4)C(=O)O2)C3` [Example 30, 6-[8-[[2-(1-amino-1-methyl-ethyl)-4,8-difluoro-3,5,6,7-tetrahydrocyclopenta[f]benzimidazol-6-yl]methyl]-2-oxo-1-oxa-3,8-diazaspiro[4.5]decan-3-yl]-4H-pyrazino[2,3-b][1,4]oxazin-3-one], the minimal inhibitory concentration (MIC) came out at 0.125 µg/mL (≈ 0.22 µM).

Take `N[C@H]1COC[C@@H]1c1nc2c(F)c3c(c(F)c2[nH]1)CC(CN1CCC2(CC1)CN(c1cnc4c(n1)NC(=O)CO4)C(=O)O2)C3` [Example 31, 6-[8-[[4,8-difluoro-2-[(3S,4R)-4-aminotetrahydrofuran-3-yl]-3,5,6,7-tetrahydrocyclopenta[f]benzimidazol-6-yl]methyl]-2-oxo-1-oxa-3,8-diazaspiro[4.5]decan-3-yl]-4H-pyrazino[2,3-b][1,4]oxazin-3-one]: the minimal inhibitory concentration (MIC) was found to be 0.25 µg/mL (≈ 0.419 µM).

On to `Nc1nc2c(F)c3c(c(F)c2[nH]1)CC(CN1CCC2(CC1)CN(c1cnc4c(n1)NC(=O)CO4)C(=O)O2)C3` [Example 32, 6-[8-[(2-amino-4,8-difluoro-3,5,6,7-tetrahydrocyclopenta[f]benzimidazol-6-yl)methyl]-2-oxo-1-oxa-3,8-diazaspiro[4.5]decan-3-yl]-4H-pyrazino[2,3-b][1,4]oxazin-3-one], for which the MIC stood at 0.25 µg/mL (≈ 0.475 µM).

As to `CNCc1nc2c(F)c3c(c(F)c2n1C)CC(CN1CCC2(CC1)CN(c1cnc4c(n1)NC(=O)CO4)C(=O)O2)C3` (centres unmarked) [Example 33, 6-[8-[[4,8-difluoro-1-methyl-2-(methylaminomethyl)-6,7-dihydro-5H-cyclopenta[f]benzimidazol-6-yl]methyl]-2-oxo-1-oxa-3,8-diazaspiro[4.5]decan-3-yl]-4H-pyrazino[2,3-b][1,4]oxazin-3-one], the MIC worked out at 0.25 µg/mL (≈ 0.44 µM).

These data come from patent US20240252506A1 (Hoffmann-La Roche Inc., priority 2021, published 2024).
